Experimental data as given in PMC6385481 (Chemical Science, 2018).
Entries after “also recorded” stand apart in the source; their conditions may differ.

Experiments:
TAP = TAP (Homo sapiens, UniProt Q03518+Q03519); test: TAP-dependent peptide transport of NST-F in Raji microsomes; assay type: biochemical; conditions: read-out: inhibition of TAP-dependent peptide translocation before illumination
[1] = target: T1, TAP (core-TAP1mVenus/core-TAP2mCerulean containing crude membranes from Pichia pastoris) (Homo sapiens, UniProt Q03518+Q03519); test: Filter-based peptide competition assay; assay type: binding; conditions: 100 μM inhibitor; illumination at 365 nm
T1 sequence (Q03518 167-748 limits assumed): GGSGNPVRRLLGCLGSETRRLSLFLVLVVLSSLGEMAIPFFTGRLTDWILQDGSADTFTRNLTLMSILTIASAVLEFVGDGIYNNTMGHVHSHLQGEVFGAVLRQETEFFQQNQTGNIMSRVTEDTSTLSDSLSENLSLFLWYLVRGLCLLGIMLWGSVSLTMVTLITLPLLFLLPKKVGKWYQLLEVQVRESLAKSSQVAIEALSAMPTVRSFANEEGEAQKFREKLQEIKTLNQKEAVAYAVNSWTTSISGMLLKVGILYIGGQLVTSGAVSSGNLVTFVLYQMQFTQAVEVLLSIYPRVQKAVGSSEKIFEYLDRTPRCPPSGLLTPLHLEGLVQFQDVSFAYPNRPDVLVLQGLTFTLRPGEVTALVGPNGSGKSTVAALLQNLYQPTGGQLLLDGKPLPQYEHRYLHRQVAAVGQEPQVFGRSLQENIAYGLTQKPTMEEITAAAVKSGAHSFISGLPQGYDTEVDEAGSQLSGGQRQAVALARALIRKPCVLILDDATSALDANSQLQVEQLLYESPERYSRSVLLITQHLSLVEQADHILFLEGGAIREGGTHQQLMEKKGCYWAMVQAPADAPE
T1 sequence (Q03519 125-686 limits assumed): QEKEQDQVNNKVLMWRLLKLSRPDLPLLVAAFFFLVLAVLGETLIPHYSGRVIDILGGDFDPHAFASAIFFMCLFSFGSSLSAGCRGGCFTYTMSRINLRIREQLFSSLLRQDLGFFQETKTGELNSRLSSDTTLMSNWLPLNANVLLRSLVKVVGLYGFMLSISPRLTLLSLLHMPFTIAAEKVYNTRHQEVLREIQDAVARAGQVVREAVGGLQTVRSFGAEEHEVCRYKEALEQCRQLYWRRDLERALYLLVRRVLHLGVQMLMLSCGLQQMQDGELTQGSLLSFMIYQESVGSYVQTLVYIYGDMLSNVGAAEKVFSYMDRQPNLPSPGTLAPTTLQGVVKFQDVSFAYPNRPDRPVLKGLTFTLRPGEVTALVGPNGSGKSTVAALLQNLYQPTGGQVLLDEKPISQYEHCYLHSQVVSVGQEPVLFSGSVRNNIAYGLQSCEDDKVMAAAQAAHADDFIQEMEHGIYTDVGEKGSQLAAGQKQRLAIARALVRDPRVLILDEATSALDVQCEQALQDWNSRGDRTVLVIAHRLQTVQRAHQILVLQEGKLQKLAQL

TAP, sequence (Q03518 whole entry): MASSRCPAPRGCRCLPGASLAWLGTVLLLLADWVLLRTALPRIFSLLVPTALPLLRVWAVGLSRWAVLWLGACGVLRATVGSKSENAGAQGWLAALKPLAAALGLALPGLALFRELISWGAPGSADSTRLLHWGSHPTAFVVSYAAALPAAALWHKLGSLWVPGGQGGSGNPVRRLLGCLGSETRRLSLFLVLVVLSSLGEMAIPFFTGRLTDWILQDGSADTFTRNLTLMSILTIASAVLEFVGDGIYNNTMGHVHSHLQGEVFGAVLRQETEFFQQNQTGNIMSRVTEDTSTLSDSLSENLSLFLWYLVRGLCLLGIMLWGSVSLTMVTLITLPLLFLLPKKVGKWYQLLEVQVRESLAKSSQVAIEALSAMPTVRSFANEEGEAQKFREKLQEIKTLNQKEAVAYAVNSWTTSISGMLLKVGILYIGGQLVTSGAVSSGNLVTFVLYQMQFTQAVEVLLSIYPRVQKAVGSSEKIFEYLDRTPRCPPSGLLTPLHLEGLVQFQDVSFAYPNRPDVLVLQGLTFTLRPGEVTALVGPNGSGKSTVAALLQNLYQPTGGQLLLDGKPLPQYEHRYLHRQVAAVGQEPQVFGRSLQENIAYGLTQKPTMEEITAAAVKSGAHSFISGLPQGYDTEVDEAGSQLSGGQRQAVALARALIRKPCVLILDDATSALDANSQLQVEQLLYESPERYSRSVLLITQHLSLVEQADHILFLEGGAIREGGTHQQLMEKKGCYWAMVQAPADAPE
TAP, sequence (Q03519 whole entry): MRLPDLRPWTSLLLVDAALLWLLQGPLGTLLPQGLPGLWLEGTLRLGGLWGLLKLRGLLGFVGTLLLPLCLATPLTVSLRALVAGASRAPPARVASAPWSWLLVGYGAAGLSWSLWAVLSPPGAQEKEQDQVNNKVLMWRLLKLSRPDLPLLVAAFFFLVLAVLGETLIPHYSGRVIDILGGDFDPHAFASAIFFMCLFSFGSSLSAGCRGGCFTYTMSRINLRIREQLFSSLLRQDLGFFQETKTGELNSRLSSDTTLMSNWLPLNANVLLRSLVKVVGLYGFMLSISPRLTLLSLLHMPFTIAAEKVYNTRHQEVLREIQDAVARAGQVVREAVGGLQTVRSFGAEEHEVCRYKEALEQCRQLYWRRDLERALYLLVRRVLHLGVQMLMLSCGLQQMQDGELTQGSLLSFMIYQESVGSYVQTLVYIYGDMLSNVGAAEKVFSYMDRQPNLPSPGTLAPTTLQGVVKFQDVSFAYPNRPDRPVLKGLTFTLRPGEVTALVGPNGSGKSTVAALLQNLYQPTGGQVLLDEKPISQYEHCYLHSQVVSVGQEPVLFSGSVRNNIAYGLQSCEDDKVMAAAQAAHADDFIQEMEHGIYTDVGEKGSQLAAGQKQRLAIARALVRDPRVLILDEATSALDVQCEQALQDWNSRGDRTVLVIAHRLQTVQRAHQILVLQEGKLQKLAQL
TAP, sequence (O15533 21-448 partner): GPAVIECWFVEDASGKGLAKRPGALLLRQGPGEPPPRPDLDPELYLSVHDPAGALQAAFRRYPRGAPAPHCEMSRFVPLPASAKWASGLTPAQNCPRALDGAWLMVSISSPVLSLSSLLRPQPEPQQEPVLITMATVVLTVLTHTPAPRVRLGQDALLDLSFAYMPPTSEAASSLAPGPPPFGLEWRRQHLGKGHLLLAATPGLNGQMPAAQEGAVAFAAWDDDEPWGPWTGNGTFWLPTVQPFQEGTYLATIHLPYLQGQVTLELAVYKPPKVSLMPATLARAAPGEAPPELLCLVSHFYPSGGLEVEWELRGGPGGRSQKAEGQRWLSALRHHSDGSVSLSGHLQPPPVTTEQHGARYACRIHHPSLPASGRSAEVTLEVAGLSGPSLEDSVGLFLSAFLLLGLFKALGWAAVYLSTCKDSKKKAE
TAP, sequence (P30101 25-505 partner): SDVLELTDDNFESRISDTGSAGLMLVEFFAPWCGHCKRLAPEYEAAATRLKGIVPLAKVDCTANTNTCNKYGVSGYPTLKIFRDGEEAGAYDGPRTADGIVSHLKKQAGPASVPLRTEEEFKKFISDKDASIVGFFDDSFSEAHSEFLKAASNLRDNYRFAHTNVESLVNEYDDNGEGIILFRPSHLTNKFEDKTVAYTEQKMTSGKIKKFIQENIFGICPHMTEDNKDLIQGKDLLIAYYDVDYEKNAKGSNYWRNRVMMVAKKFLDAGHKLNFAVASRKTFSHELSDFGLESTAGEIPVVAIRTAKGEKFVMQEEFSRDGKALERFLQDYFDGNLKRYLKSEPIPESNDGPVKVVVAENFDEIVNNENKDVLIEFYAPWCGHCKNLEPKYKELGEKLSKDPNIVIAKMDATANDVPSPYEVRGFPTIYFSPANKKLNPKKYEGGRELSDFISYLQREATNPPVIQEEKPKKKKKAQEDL

CC[C@H](C)[C@H](NC(=O)[C@H](CCC(=O)O)NC(=O)[C@H](CC(=O)O)NC(=O)[C@H](CCCNC(=N)N)NC(=O)[C@@H](NC(=O)[C@H](CC(=O)O)NC(=O)[C@H](C)NC(=O)[C@H](Cc1ccc(O)cc1)NC(=O)[C@@H](NC(=O)[C@H](CCCNC(=N)N)NC(=O)[C@@H]1CCCN1C(=O)CNC(=O)[C@@H](NC(=O)[C@H](CCCNC(=N)N)NC(=O)[C@H](CCSC)NC(=O)[C@H](CC(N)=O)NC(=O)[C@H](CC(=O)O)NC(=O)[C@H](CC(C)C)NC(=O)[C@H](Cc1ccccc1)NC(=O)[C@@H](NC(=O)[C@H](CC(=O)O)NC(=O)[C@H](C)NC(=O)[C@H](CCSC)NC(=O)[C@H](CCC(=O)O)NC(=O)[C@H](CC(C)C)NC(=O)[C@H](C)NC(=O)[C@H](Cc1c[nH]c2ccccc12)NC(=O)[C@@H](N)CO)[C@@H](C)O)C(C)C)[C@@H](C)O)C(C)C)C(=O)N[C@@H](CC(N)=O)C(=O)N[C@@H](CCCCN)C(=O)N[C@@H](CCCNC(=N)N)C(=O)NCC(=O)N[C@@H](CCCNC(=N)N)C(=O)O [ICP47_2–34]
inhibition at 5 µM (TAP): > 85%
effect of illumination on TAP peptide binding blocked by inhibitor [1]: not affected by illumination; also recorded: did not recover the TAP activity
